Measurements from patent US20120129928A1, “Chlorine-Free Liquid Microbicide Treatment” (University of Georgia Research Foundation, Inc., priority 2010, published 2012).
“And” between values parts separate entries of the source, which are not always exact repeats. Equal values may be shown once. Read-outs that look alike come from different tables or passages of the source.

How the values were obtained:
various yeast species = assay: Effect of levulinic acids plus SDS at 21° C. on various yeast species; assay type: cell-based; settings: for Yeast counts at min: 1: 1 min; for Yeast counts at min: 2: 2 min; for Yeast counts at min: 5: 5 min; for Yeast counts at min: 10: 10 min; for Yeast counts at min: 20: 20 min; for Yeast counts at min: 30: 30 min; for Yeast counts at min: 60: 60 min
S. enteritidis = assay: Reduction of S. enteritidis in water treated with organic acids and SDS; assay type: cell-based, Salmonella enteritidis
yeasts and molds = assay: Yeast and mold (Y&M) counts on produce and in treatment solution, 4-L tank
S. typhimurium = S. typhimurium counts on produce (apples, celery, onions, cantaloupes) and in treatment solution, 4-L tank
aerobic plate count = assay: Aerobic plate counts (APC) on produce treated in a 4-L tank
S. typhimurium DT 104 = assay type: cell-based, Salmonella typhimurium DT104; settings: water, 21° C.
L. monocytogenes = assay type: cell-based, Listeria monocytogenes; settings: 21° C.
[1] = test system: spores of Bacillus anthracis Sterne; assay type: cell-based, Bacillus anthracis Sterne (34F2)

CC(=O)CCC(=O)O [2% levulinic acid] was tested, and the “Yeast counts at min: 1” value (various yeast species; Zygosaccharomyces bailii) was 5.4 log CFU/ml, the “Yeast counts at min: 2” value (various yeast species; Zygosaccharomyces bailii) was 5.5 log CFU/ml and the “Yeast counts at min: 5” value (various yeast species; Zygosaccharomyces bailii) was 5.4 log CFU/ml. The “Yeast counts at min: 10” value (various yeast species; Zygosaccharomyces bailii) was 5.4 log CFU/ml, the “Yeast counts at min: 20” value (various yeast species; Zygosaccharomyces bailii) was 5.4 log CFU/ml and the “Yeast counts at min: 30” value (various yeast species; Zygosaccharomyces bailii) was 5.4 log CFU/ml. The “Yeast counts at min: 60” value (various yeast species; Zygosaccharomyces bailii) was 5.3 log CFU/ml.

Work on CC(=O)O [0.5% acetic acid, acetic acid] yielded a S. enteritidis counts (S. enteritidis; water, 21° C., 0 min) of 7.1 log CFU/ml, a S. enteritidis counts (S. enteritidis; water, 21° C., 2 min) of 7.0 log CFU/ml and a S. enteritidis counts (S. enteritidis; water, 21° C., 5 min) of 6.8 log CFU/ml. The S. enteritidis counts (S. enteritidis; water, 21° C., 10 min) was 6.7 log CFU/ml, the S. enteritidis counts (S. enteritidis; water, 21° C., 20 min) was 6.6 log CFU/ml and the S. enteritidis counts (S. enteritidis; water, 21° C., 30 min) was 6.5 log CFU/ml.

For “acidified sodium chlorite [50 ppm acidified sodium chlorite]”, the “reduction of yeast and mold counts on onions” value (yeasts and molds) was < 0.5 log CFU per onion, the “reduction of S. typhimurium on onions” value (S. typhimurium) was < 0.5 log CFU per onion and the “reduction of APC on onions” value (aerobic plate count) was < 0.5 log CFU per onion.

CC(=O)CCC(=O)O [2.0% levulinic acids] was tested, and the “Yeast counts at min: 1” value (various yeast species; Candida magnoliae) was 5.9 log CFU/ml, the “Yeast counts at min: 2” value (various yeast species; Candida magnoliae) was 5.9 log CFU/ml and the “Yeast counts at min: 5” value (various yeast species; Candida magnoliae) was 5.9 log CFU/ml. The “Yeast counts at min: 10” value (various yeast species; Candida magnoliae) was 6.0 log CFU/ml, the “Yeast counts at min: 20” value (various yeast species; Candida magnoliae) was 6.0 log CFU/ml and the “Yeast counts at min: 30” value (various yeast species; Candida magnoliae) was 5.9 log CFU/ml. For the same compound, the “Yeast counts at min: 60” value (various yeast species; Candida magnoliae) was 5.8 log CFU/ml.

With CCCCCCCCCCCCOS(=O)(=O)[O-].[Na+] [1.0% SDS] the “Yeast counts at min: 1” value (various yeast species; Candida magnoliae) was 3.5 log CFU/ml, the “Yeast counts at min: 2” value (various yeast species; Candida magnoliae) was 3.3 log CFU/ml and the “Yeast counts at min: 5” value (various yeast species; Candida magnoliae) was 3.2 log CFU/ml. For the same compound, the “Yeast counts at min: 10” value (various yeast species; Candida magnoliae) was 3.2 log CFU/ml, the “Yeast counts at min: 20” value (various yeast species; Candida magnoliae) was 2.7 log CFU/ml and the “Yeast counts at min: 30” value (various yeast species; Candida magnoliae) was 3.0 log CFU/ml. For the same compound, the “Yeast counts at min: 60” value (various yeast species; Candida magnoliae) was 3.1 log CFU/ml, the “Yeast counts at min: 1” value (various yeast species; Debaryomyces hansenii) was 4.5 log CFU/ml and the “Yeast counts at min: 2” value (various yeast species; Debaryomyces hansenii) was 4.1 log CFU/ml. The “Yeast counts at min: 5” value (various yeast species; Debaryomyces hansenii) was 4.5 log CFU/ml, the “Yeast counts at min: 10” value (various yeast species; Debaryomyces hansenii) was 4.4 log CFU/ml and the “Yeast counts at min: 20” value (various yeast species; Debaryomyces hansenii) was 4.5 log CFU/ml. For the same compound, the “Yeast counts at min: 30” value (various yeast species; Debaryomyces hansenii) was 4.5 log CFU/ml, the “Yeast counts at min: 60” value (various yeast species; Debaryomyces hansenii) was 4.4 log CFU/ml and the “Yeast counts at min: 1” value (various yeast species; Geotrichum candidum) was 3.8 log CFU/ml. The “Yeast counts at min: 2” value (various yeast species; Geotrichum candidum) was 3.3 log CFU/ml, the “Yeast counts at min: 5” value (various yeast species; Geotrichum candidum) was 3.5 log CFU/ml and the “Yeast counts at min: 10” value (various yeast species; Geotrichum candidum) was 3.7 log CFU/ml. For the same compound, the “Yeast counts at min: 20” value (various yeast species; Geotrichum candidum) was 3.5 log CFU/ml, the “Yeast counts at min: 30” value (various yeast species; Geotrichum candidum) was 3.4 log CFU/ml and the “Yeast counts at min: 60” value (various yeast species; Geotrichum candidum) was 3.3 log CFU/ml. For the same compound, the “Yeast counts at min: 1” value (various yeast species; Saccharomyces cerevisiae) was 2.4 log CFU/ml, the “Yeast counts at min: 2” value (various yeast species; Saccharomyces cerevisiae) was 2.6 log CFU/ml and the “Yeast counts at min: 5” value (various yeast species; Saccharomyces cerevisiae) was 2.3 log CFU/ml. For the same compound, the “Yeast counts at min: 10” value (various yeast species; Saccharomyces cerevisiae) was 2.8 log CFU/ml, the “Yeast counts at min: 20” value (various yeast species; Saccharomyces cerevisiae) was 2.7 log CFU/ml and the “Yeast counts at min: 30” value (various yeast species; Saccharomyces cerevisiae) was 2.3 log CFU/ml. The “Yeast counts at min: 60” value (various yeast species; Saccharomyces cerevisiae) was 2.4 log CFU/ml, the “Yeast counts at min: 1” value (various yeast species; Zygosaccharomyces bailii) was 4.7 log CFU/ml and the “Yeast counts at min: 2” value (various yeast species; Zygosaccharomyces bailii) was 4.6 log CFU/ml. The “Yeast counts at min: 5” value (various yeast species; Zygosaccharomyces bailii) was 4.6 log CFU/ml, the “Yeast counts at min: 10” value (various yeast species; Zygosaccharomyces bailii) was 4.6 log CFU/ml and the “Yeast counts at min: 20” value (various yeast species; Zygosaccharomyces bailii) was 4.5 log CFU/ml. The “Yeast counts at min: 30” value (various yeast species; Zygosaccharomyces bailii) was 4.5 log CFU/ml and the “Yeast counts at min: 60” value (various yeast species; Zygosaccharomyces bailii) was 4.4 log CFU/ml.

In the case of CCCCCCCCCCCCOS(=O)(=O)[O-].[Na+] [SDS, sodium dodecyl sulfate], the “S. typhimurium DT 104 counts” value (S. typhimurium DT 104; 0 min) is reported as 7.0 log CFU/ml, the “S. typhimurium DT 104 counts” value (S. typhimurium DT 104; 1 min) is reported as 7.0 log CFU/ml and the “S. typhimurium DT 104 counts” value (S. typhimurium DT 104; 2 min) is reported as 6.8 log CFU/ml. For the same compound, the “S. typhimurium DT 104 counts” value (S. typhimurium DT 104; 5 min) was 6.9 log CFU/ml, the “S. typhimurium DT 104 counts” value (S. typhimurium DT 104; 10 min) was 6.8 log CFU/ml and the “S. typhimurium DT 104 counts” value (S. typhimurium DT 104; 20 min) was 6.9 log CFU/ml. The “S. typhimurium DT 104 counts” value (S. typhimurium DT 104; 30 min) was 6.9 log CFU/ml, the “S. typhimurium DT 104 counts” value (S. typhimurium DT 104; 60 min) was 6.9 log CFU/ml and the L. monocytogenes counts (L. monocytogenes; 0 min) was 6.6 ± 0.3 log CFU/ml. It also gave a L. monocytogenes counts (L. monocytogenes; 2 min) of 6.4 ± 0.1 log CFU/ml, a L. monocytogenes counts (L. monocytogenes; 5 min) of 6.0 ± 0.1 log CFU/ml and a L. monocytogenes counts (L. monocytogenes; 10 min) of 5.0 ± 0.3 log CFU/ml. For the same compound, the L. monocytogenes counts (L. monocytogenes; 20 min) was 3.8 ± 0.2 log CFU/ml, the L. monocytogenes counts (L. monocytogenes; 30 min) was 3.3 ± 0.1 log CFU/ml and the Salmonella reduction (S. enteritidis) was “did not reduce”. The S. enteritidis counts (S. enteritidis; sulfate) was 7.1 log CFU/ml and 7.0 log CFU/ml and 7.2 log CFU/ml, the “CFU % recovery (as compared to control flask F)” value (from here on “CFU % recovery”) ([1]; Experiment A3, 10 min) was 65% and the “CFU % recovery” value ([1]; Experiment A3, 45 min) was 94%. For the same compound, the “CFU % recovery” value ([1]; Experiment A3, 180 min) was 95%, the “CFU % recovery” value ([1]; Experiment A4 absent heat, RT, 0 min) was 85% and the “CFU % recovery” value ([1]; Experiment A4 absent heat, RT, 1 h) was 90%. For the same compound, the “CFU % recovery” value ([1]; Experiment A4 absent heat, RT, 2 h) was 87%, the “CFU % recovery” value ([1]; Experiment A4 absent heat, RT, 3 h) was 98% and the “CFU % recovery” value ([1]; Experiment A4 absent heat, RT, 4 h) was 79%. For the same compound, the “CFU % recovery” value ([1]; Experiment A4 with heat, 65° C., 0 min) was 48%, the “CFU % recovery” value ([1]; Experiment A4 with heat, 65° C., 1 h) was 53% and the “CFU % recovery” value ([1]; Experiment A4 with heat, 65° C., 2 h) was 74%. The “CFU % recovery” value ([1]; Experiment A4 with heat, 65° C., 3 h) was 68%, the “CFU % recovery” value ([1]; Experiment A5 with heat, 65° C., 0 min) was 71% and the “CFU % recovery” value ([1]; Experiment A5 with heat, 65° C., 1 h) was 69%. The “CFU % recovery” value ([1]; Experiment A5 with heat, 65° C., 2 h) was 53%, the “CFU % recovery” value ([1]; Experiment A5 with heat, 65° C., 3 h) was 71% and the “CFU % recovery” value ([1]; Experiment A5 with heat, 65° C., 4 h) was 54%.
